Assay results taken from publication PMC12040169 (PLOS Biology, 2025).

Assay: in vitro
Conditions: human, hela cells, % viability

| Compound | viability at 28.5 h, 10 µM [%] |
| --- | --- |
| CCCc1ccc(S(=O)(=O)Nc2c(C(=O)N(CC)CC)[nH]c3ccccc23)cc1 [CBK050111] | 87.1 |
| Cc1cc(C(=O)N2CC3CCCC(O)(c4cccn4C)C3C2)c(C)[nH]1 (stereo not drawn) [CBK284514] | 93.9 |
| Cn1c(C(=O)N2CCc3ccccc3C2)cc2ccccc21 [CBK200337] | 96.7 |
| Cc1ccc(C)c(N2CCN(CCCNC(=S)Nc3ccc(Cl)cc3Cl)CC2)c1 [CBK267951] | 99.6 |
| Cc1ccc(CN(CC(=O)N2CCCCC2)S(=O)(=O)c2ccc(C)cc2)cc1 [CBK264646] | 91.6 |
| COc1ccc(C)cc1NC(=O)C1CC(=O)Nc2ncnn21 (stereo not drawn) [CBK270274] | 99.5 |
| Cc1ccc(S(=O)(=O)Nc2ccc(Nc3nc(-c4ccccc4)cn4ccnc34)cc2)cc1 [CBK037303] | 104 |
| N#Cc1cccnc1N1CC(C(=O)O)C2(CCC2)C1 (stereo not drawn) [CBK304415] | 93.7 |
| Oc1ccccc1C(=S)N1CCCCC1 [CBK027552] | 92.8 |
| O=C(CSc1ncnc2c1oc1ccccc12)Nc1ccccc1F [CBK287393] | 87.3 |
| O=S(=O)(Nc1nc2cc(Cl)ccc2o1)c1ccc(Oc2ccccc2)cc1 [CBK050499] | 97.8 |
| NC(=O)Cn1cc(CNC2(c3ccccc3)CC2)c2ccccc21 [CBK282776] | 94.9 |
| Cc1ccc(C(NC(=O)C2CCN(Cc3ccc(Cl)cc3)CC2)c2ccccn2)cc1 (stereo not drawn) [CBK148007] | 103 |
| CCS(=O)(=O)N1CCCCCC1c1nn(C)cc1Cl (stereo not drawn) [CBK284672] | 83.6 |
| COc1ccc(C(=O)N2CCC3(CCN(C(=O)c4ccc5[nH]c(=O)[nH]c5c4)C3)C2)cc1OC (stereo not drawn) [CBK131793] | 100 |
| COc1cccc(OCC(=O)Nc2ccc(Cl)cc2C(=O)O)c1 [CBK264208] | 105 |
| O=C(COc1ccc(F)cc1F)NNC(=S)NC1CCCCC1 [CBK266859] | 82.2 |
| O=C1Cc2c(ccc3ccccc23)C2(CCN(CCCC(F)(F)F)CC2)N1 [CBK039912] | 89.6 |
| CCn1cnc2cc(NC(=O)c3ccc(C)n(C)c3=O)ccc21 [CBK281402] | 106 |
| FC(F)(F)c1cccc(Sc2cccc3ccccc23)n1 [CBK091449] | 94.8 |
| CCCN(C(=O)CCn1c(=O)oc2cc(Cl)ccc21)C1CCNC1 (stereo not drawn) [CBK304311C] | 90.5 |
| CCOC(=O)c1cc(-c2ccc(OC)cc2)nn1-c1ccc(C(=O)O)cc1 [CBK296133] | 87.9 |
| Cc1cc(C)c(S(=O)(=O)Nc2nnc(C)s2)c(C)c1 [CBK045497] | 87.5 |

| Compound | viability at 28.5 h, 10 µM [%] |
| --- | --- |
| CC(C)C1OC(NCc2ccccc2Cl)=NC1=O (stereo not drawn) [CBK070344] | 95.1 |
| CC(O)CNCCCOc1ccccc1-c1ccccc1 (stereo not drawn) [CBK268633G] | 97.6 |
| COc1cccc(-c2cncc(C3CN(Cc4cccc5ncccc45)CCO3)n2)c1 (stereo not drawn) [CBK285973] | 102 |
| COC(=O)[C@H](CC1CCCCC1)NS(=O)(=O)c1ccc(C(C)C)cc1 [CBK044551] | 96.3 |
| CC(=O)NC[C@@H]1C=C(C)[C@H](Cc2nnc(-c3cncn3C)o2)C[C@H]1C(C)C [CBK289225] | 107 |
| O=C(Nc1nccc(N2CCNCC2)n1)C1CCCC1 [CBK004302T] | 113 |
| COC(=O)c1ccccc1NC(=O)CSCc1ccc(Cl)cc1Cl [CBK131712] | 86.2 |
| Brc1cccc(NN=C2CCCC2)n1 [CBK006748] | 85.3 |
| O=C(O)/C=C/C(=O)N1N=C(c2ccc(F)cc2)CC12C(=O)Nc1ccccc12 (stereo not drawn) [CBK286747] | 88.9 |
| COc1ccc(Sc2nc(SC)nc(-c3ccccc3)c2C#N)cc1 [CBK291212] | 94 |
| COc1cc(Nc2cccc(-c3ccc4ccccc4c3)n2)cc(OC)c1OC [CBK037612] | 97.9 |
| COC(=O)c1c(NC(=O)CC2Nc3cccc4cccc(c34)NC2=O)sc(C)c1C (stereo not drawn) [CBK267562] | 68.3 |
| COCCn1nnnc1C(c1cc2cc(C)cc(C)c2[nH]c1=O)N1CCOCC1 (stereo not drawn) [CBK068815] | 95.3 |
| O=C(Nc1cccc(Oc2ccccc2)c1)c1ccc2[nH]ccc2c1 [CBK161728] | 97.5 |
| O=C(C(OCC(F)(F)F)c1ccccc1)N1CCN(c2nccs2)CC1 (stereo not drawn) [CBK298299] | 91.9 |
| CC[C@H](Cn1c(=O)oc2ccccc21)NC(=O)Cc1ccsc1 [CBK284543] | 89.2 |
| Cc1ccc(C(=O)NNC(=O)/C=C\C(=O)O)cc1 [CBK261842] | 86.9 |
| COc1ccc(C(NC(=O)C2CCN(CCOc3ccc(Br)cc3)CC2)c2ccco2)cc1 (stereo not drawn) [CBK148311] | 95.8 |
| Cc1ccccc1NC(=O)Nc1cccc(F)c1 [CBK105831] | 88.3 |
| CN1CCN(c2ccc(-c3cnc(N)c(NC4CCOCC4)n3)cc2)CC1 [CBK064114] | 88.8 |
| Cc1oc(CSc2nnc(NCc3ccc(F)cc3)s2)cc1C(=O)O [CBK296629] | 91.6 |
| Cc1ccc(S(=O)(=O)NC[C@H]2O[C@@H](CC(=O)N3CCc4ccccc43)[C@H](O)[C@@H]2O)cc1 [CBK288917] | 91.3 |
| O=C(CN1CCN(CCN2C(=O)c3cccc4cccc(c34)C2=O)CC1)c1ccc(F)cc1 [CBK263414B] | 94.5 |

| Compound | viability at 28.5 h, 10 µM [%] |
| --- | --- |
| Cc1ocnc1C(=O)Nc1nc2c(cc1C#N)CCC2 [CBK306365] | 92.7 |
| O=C(NC(c1ccc(Cl)cc1)c1cccnc1)C1CCN(C(=O)c2ccco2)CC1 (stereo not drawn) [CBK059708] | 92.4 |
| Cc1ccccc1CSCC(=O)NCCN1CCOCC1 [CBK269207] | 103 |
| O=S(=O)(NCc1ccccc1)N1CCCCCC1 [CBK269569] | 101 |
| CCCNc1nc(Cl)nc(NCc2cccnc2)n1 [CBK261995] | 89 |
| CCOC(=O)c1c(NC(=O)c2nc3ncccn3n2)sc(C)c1C [CBK267630] | 114 |
| O=C(Nc1ccc2ncccc2c1)c1cnc(-c2cccc(C(F)(F)F)c2)c(-c2cccnc2)c1 [CBK037591] | 89.9 |
| CCOc1ccccc1OCC(=O)NN [CBK261782] | 93.2 |
| Cc1ncc(C(O)c2ccc(Cl)cc2)c2c1OC(C)(C)OC2 (stereo not drawn) [CBK010749] | 111 |
| Cc1cc(C(=O)CSc2nnc(CN3CCCC3)o2)c(C)n1C1CC1 [CBK306199] | 84 |
| CN1CCOc2cc(S(=O)(=O)Nc3cccc(-c4cnco4)c3)ccc21 [CBK067119] | 82.9 |
| CC(=O)Nc1ccc(OCC(O)Cn2c(CO)nc3ccccc32)cc1 (stereo not drawn) [CBK304549] | 81.3 |
| COC(=O)CC[C@H]1CNC(=O)[C@@H]2[C@@H](CCN2C)N1C [CBK289020] | 95.4 |
| CN1C(=O)C2(CC(=O)N(Cc3ccccc3)C2=O)c2cc(F)ccc21 (stereo not drawn) [CBK075268] | 98.6 |
| O=C1c2cc(S(=O)(=O)NCc3ccco3)ccc2-c2ccc(S(=O)(=O)NCc3ccco3)cc21 [CBK262250] | 98.5 |
| Fc1ccc(NC(=S)NCC2CC2)c(F)c1 [CBK011398] | 100 |
| CN(C)CCN(C)Cc1ccc2ccc3cccc4ccc1c2c34 [CBK261860] | 103 |
| COc1ccc(C(=O)c2sc3nc(C)cc(C)c3c2N)cc1 [CBK115362] | 87.7 |
| O=S(=O)(Nc1ccc(C(O)(C(F)(F)F)C(F)(F)F)cc1)c1ccc(-c2ccon2)s1 [CBK062105] | 91.2 |
| Cn1cc(-c2ncc(OCc3ccc4c(c3)OCO4)nc2N)cn1 [CBK145168] | 105 |
| O=C(c1cccc(S(=O)(=O)Nc2ccccn2)c1)N1CCCc2ccccc21 [CBK269645] | 84.9 |
| Cc1ccc(C(=O)NC(CC(C)C)c2nnc3n2CCNCC3)c(F)c1 (stereo not drawn) [CBK306817] | 85 |
| COc1ccc(/C=N/NC(=O)Cc2cccn2C)cc1[N+](=O)[O-] [CBK262789] | 99.1 |

| Compound | viability at 28.5 h, 10 µM [%] |
| --- | --- |
| COc1ccc(-c2cncc(N3CCCC3CO)n2)cc1 (stereo not drawn) [CBK037223] | 112 |
| CC(=O)N(C)c1ncc(Br)cc1C(=O)NCc1ccc2c(c1)CCO2 [CBK076544] | 93.5 |
| CC(C(=O)Nc1ccc(S(N)(=O)=O)cc1)N(C)Cc1ccccc1F (stereo not drawn) [CBK305840] | 105 |
| S=c1n(CN2CCC(c3ccccc3)CC2)nc(Cc2ccccc2)n1-c1ccccc1 [CBK265037] | 95.2 |
| CC(=O)Nc1ccc(-c2cncc(N3CCN(CCN4CCCC4)CC3)n2)cc1 [CBK065710] | 103 |
| CC(=O)c1ccc(NC(=O)c2cccc(S(=O)(=O)N3CCCCC3)c2)cc1 [CBK263246] | 96.4 |
| Cc1cccc2sc(NC(=O)c3ccccc3)nc12 [CBK287300] | 102 |
| CC(=O)Nc1cc(S(N)(=O)=O)c(F)cc1C [CBK034356] | 94.1 |
| COc1cc(NC(=O)C(c2ccccc2)c2ccccc2)c(C(=O)O)cc1OC [CBK262001] | 90.1 |
| c1ccc(CNc2nc(-c3ccco3)cn3ccnc23)nc1 [CBK037482] | 96.6 |
| O=S(=O)(NCc1nc(-c2ccccc2)no1)c1ccc(F)cc1 [CBK268198] | 93.3 |
| O=C(NCc1ccccc1)c1ccc(NC(=O)c2cc(-n3cnnc3)ccc2Cl)cc1 [CBK267896] | 99.2 |
| CC1CCN(CN2C(=O)C(=O)c3ccccc32)CC1 [CBK261304] | 91.7 |
| Cc1noc(C)c1Cc1ccc(C(=O)Nc2nc3ccccc3n2C)o1 [CBK299839] | 85.6 |
| C[C@@H](Cn1nnc2ccccc21)NC(=O)Cc1cccs1 [CBK282312] | 92.8 |
| O=C(N/N=C/c1c(O)ccc2ccccc12)c1cnccn1 [CBK262400] | 105 |
| CCn1c(C)nn(-c2nc3c(Cl)cccc3s2)c1=O [CBK026010] | 100 |
| Oc1ccc(-c2cncc(Nc3cccc(Br)c3)n2)cc1 [CBK107803] | 84.8 |
| O=C(CCN1C(=O)COc2ccccc21)NCCCN1CCN(c2ccccc2F)CC1 [CBK294469] | 102 |
| O=C(O)CCc1nn2c3ccccc3nc2n(-c2ccccc2)c1=O [CBK267520] | 90.6 |
| Cc1csc2ncc(C(=O)Nc3cc(C(F)(F)F)ccc3Cl)c(=O)n12 [CBK287465] | 94.4 |
